According to the supplement of paper PMC10307832:

Tests used:
Experiment in all cases: relative viability (nuclei count vs DMSO), 5 days (fraction); higher = more cells survive
Motesanib + Trametinib = compound: CC1(C)CNc2cc(NC(=O)c3cccnc3NCc3ccncc3)ccc21 [Motesanib] + CC(=O)Nc1cccc(-n2c(=O)n(C3CC3)c(=O)c3c(Nc4ccc(I)cc4F)n(C)c(=O)c(C)c32)c1 [Trametinib] (partner 0.02 µM)
Outline: (§1)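 Relative viability was taken as the ratio of nuclei in treated wells to nuclei in vehicle wells. Lung cancer cell lines in 1536-well plates received compounds by pin tool one day after seeding, either one drug alone or a fixed anchor-drug dose plus five library-drug doses (not always all listed) in √10 steps. Nuclei were counted on 4× images after 5 days of treatment, and values are medians of duplicate plates.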

Motesanib + Pictilisib = compound: CC1(C)CNc2cc(NC(=O)c3cccnc3NCc3ccncc3)ccc21 [Motesanib] + CS(=O)(=O)N1CCN(Cc2cc3nc(-c4cccc5[nH]ncc45)nc(N4CCOCC4)c3s2)CC1 [Pictilisib] (partner 1 µM)
Outline: as §1

Motesanib + AZD7762 = compound: CC1(C)CNc2cc(NC(=O)c3cccnc3NCc3ccncc3)ccc21 [Motesanib] + NC(=O)Nc1cc(-c2cccc(F)c2)sc1C(=O)N[C@H]1CCCNC1 [AZD7762] (partner 0.2 µM)
Outline: as §1

[1] = compound: C[C@@]1(C(=O)Nc2ccc(F)nc2)CCCN1c1nc(Nc2cc(C3CC3)n[nH]2)c2cccn2n1 + N=C(N)NC(=N)NCCc1ccccc1 [Phenformin] (partner 250 µM)
Outline: as §1

Cell Line | relative viability (Motesanib + Trametinib; first compound 0.01 µM) | relative viability (Motesanib + Trametinib; first compound 0.03162 µM) | relative viability (Motesanib + Trametinib; first compound 0.1 µM) | relative viability (Motesanib + Trametinib; first compound 0.3162 µM) | relative viability (Motesanib + Trametinib; first compound 1 µM) | relative viability (Motesanib + Pictilisib; first compound 0.01 µM) | relative viability (Motesanib + Pictilisib; first compound 0.03162 µM) | relative viability (Motesanib + Pictilisib; first compound 0.1 µM) | relative viability (Motesanib + Pictilisib; first compound 0.3162 µM) | relative viability (Motesanib + Pictilisib; first compound 1 µM) | relative viability (Motesanib + AZD7762; first compound 0.01 µM) | relative viability (Motesanib + AZD7762; first compound 0.03162 µM) | relative viability (Motesanib + AZD7762; first compound 0.1 µM) | relative viability (Motesanib + AZD7762; first compound 0.3162 µM) | relative viability (Motesanib + AZD7762; first compound 1 µM) | relative viability ([1]; first compound 0.04 µM) | relative viability ([1]; first compound 0.1265 µM) | relative viability ([1]; first compound 0.4 µM) | relative viability ([1]; first compound 1.265 µM)
NCI-H1975 | 0.335 | 0.359 | 0.316 | 0.38 | 0.339 | 0.312 | 0.282 | 0.313 | 0.352 | 0.31 | 0.656 | 0.686 | 0.752 | 0.821 | 0.709 | 0.407 | 0.36 | 0.326 | 0.314
CAL-12T | 0.324 | 0.316 | 0.33 | 0.402 | 0.419 |  |  | 0.358 | 0.403 | 0.434 | 0.518 | 0.637 | 0.684 | 0.69 | 0.578 | 0.575 | 0.507 | 0.464 | 0.207
NCI-H1623 |  |  |  |  |  |  |  |  |  |  |  |  |  |  |  | 0.563 | 0.462 | 0.449 | 0.477
HCC-44 | 1.01 | 1.06 | 1.05 | 1.12 | 1.19 | 0.672 | 0.611 | 0.891 | 0.673 | 0.474 | 0.93 | 1.05 | 1.13 | 1.08 | 1.02 | 0.178 | 0.116 | 0.134 | 0.0862
EKVX | 0.303 | 0.414 | 0.344 | 0.459 | 0.522 | 0.483 | 0.445 | 0.462 | 0.472 | 0.506 | 0.716 | 0.653 | 0.684 | 0.68 | 0.665 | 0.204 | 0.215 | 0.218 | 0.221
NCI-H1651 | 0.817 | 0.796 | 0.777 | 0.849 | 0.847 | 0.607 | 0.538 | 0.516 | 0.562 | 0.51 | 0.401 | 0.499 | 0.547 | 0.451 | 0.463 | 0.283 | 0.287 | 0.269 | 0.283
NCI-H1944 | 0.438 | 0.442 | 0.408 | 0.455 | 0.384 | 0.322 | 0.342 | 0.399 | 0.379 | 0.364 | 0.425 | 0.476 | 0.532 | 0.541 | 0.472 | 0.169 | 0.153 | 0.136 | 0.133
NCI-H1703 |  |  |  |  |  | 0.21 | 0.219 | 0.195 | 0.215 | 0.214 |  | 0.127 | 0.139 | 0.13 | 0.13 |  |  |  | 
Calu-6 |  |  |  |  |  | 0.878 | 0.727 | 0.944 | 0.867 | 0.84 |  |  |  |  |  |  |  |  | 
EBC-1 |  |  |  |  |  | 0.503 | 0.366 | 0.302 | 0.385 | 0.335 |  |  |  |  |  |  |  |  | 
SW 1573 | 0.613 | 0.503 | 0.721 | 0.593 | 0.628 | 0.479 | 0.437 | 0.617 | 0.54 | 0.563 |  |  |  |  |  | 0.232 | 0.218 | 0.228 | 0.214
A-427 | 0.742 | 0.702 | 0.774 | 0.775 | 0.762 | 0.43 | 0.684 | 0.495 | 0.681 | 0.789 | 0.709 | 0.733 | 0.821 | 0.775 | 0.668 | 0.341 | 0.265 | 0.229 | 0.211
NCI-H2347 | 0.264 | 0.3 | 0.292 | 0.245 | 0.278 | 0.476 | 0.803 | 0.382 | 0.456 | 0.678 | 0.738 | 0.825 | 0.749 | 0.674 | 0.712 | 0.368 | 0.495 | 0.312 | 0.41
NCI-H1355 | 0.398 | 0.473 | 0.463 | 0.4 | 0.459 | 0.47 | 0.475 | 0.406 | 0.502 | 0.485 | 0.778 | 0.54 | 0.837 | 0.687 | 0.673 | 0.418 | 0.415 | 0.347 | 0.39
NCI-H358 | 0.13 | 0.137 | 0.129 | 0.163 | 0.138 | 0.303 | 0.336 | 0.351 | 0.435 | 0.338 | 0.434 | 0.626 | 0.481 | 0.661 | 0.55 | 0.212 | 0.144 | 0.113 | 0.115
PC-3 [JPC-3] | 0.745 | 0.676 | 0.795 | 0.779 | 0.703 | 0.774 | 0.858 | 0.733 | 0.853 | 0.706 | 0.779 | 0.751 | 0.727 | 0.731 | 0.683 | 0.504 | 0.467 | 0.456 | 0.476
NCI-H2228 | 0.395 | 0.764 | 0.459 | 0.505 | 0.466 | 0.442 | 0.356 | 0.387 | 0.365 | 0.535 |  |  |  |  |  | 0.223 | 0.196 | 0.171 | 0.232
HOP-62 | 0.366 | 0.379 | 0.37 | 0.405 | 0.424 | 0.651 | 0.843 | 0.507 | 1.08 | 1.01 | 0.456 | 0.836 | 0.613 | 0.761 | 0.595 | 0.672 | 0.598 | 0.635 | 0.762
HARA | 0.649 | 0.454 | 0.598 | 0.918 | 0.441 | 0.372 | 0.366 | 0.405 | 0.389 | 0.461 | 0.17 | 0.277 | 0.48 | 0.362 | 0.207 | 0.431 | 0.386 | 0.395 | 0.442
NCI-H838 | 0.494 | 0.568 | 0.507 | 0.544 | 0.529 | 0.496 | 0.441 | 0.462 | 0.449 | 0.508 | 0.895 | 0.872 | 0.984 | 1 | 0.994 | 0.563 | 0.449 | 0.308 | 0.37
